# Laboratory results as given in ChEMBL document CHEMBL4359907, “Scalable and cost-effective tosylation-mediated synthesis of antifungal and fungal diagnostic 6″-Modified amphiphilic kanamycins” (Eur J Med Chem, 2019).
# Active and inactive are the calls of the source. The calls are words filed in the database; no cut-off is given here.
# Key:
# Escherichia coli [1] = test: Antibacterial activity against Escherichia coli ATCC 25922 incubated for 18 hrs by two fold dilution method; format: functional; conditions: ATCC 25922, 18 h
# Fusarium graminearum = test: Antifungal activity against Fusarium graminearum B4-5A incubated for 24 to 36 hrs by two fold dilution method; format: functional
# Staphylococcus aureus [2] = test: Induction of membrane permeabilization in Staphylococcus aureus at 1/2 times MIC incubated for 60 mins by phase contrast microscopic method; format: functional, organism-based
# Staphylococcus aureus [3] = test: Antibacterial activity against Staphylococcus aureus ATCC 25923 incubated for 18 hrs by two fold dilution method; format: functional; conditions: ATCC 25923, 18 h
# Candida albicans [4] = test: Antifungal activity against azole-resistant Candida albicans 64124 incubated for 24 to 36 hrs by two fold dilution method; format: functional
# Cryptococcus neoformans [5] = test: Antifungal activity against Cryptococcus neoformans H99 incubated for 24 to 36 hrs by two fold dilution method; format: functional
# Escherichia coli [6] = test: Induction of membrane permeabilization in Escherichia coli ATCC 25922 at MIC incubated for 60 mins by phase contrast microscopic method; format: functional, organism-based
# Rhodotorula mucilaginosa = test: Antifungal activity against Rhodotorula pilimanae ATCC 26423 incubated for 24 to 36 hrs by two fold dilution method; format: functional
# Candida albicans [7] = test: Antifungal activity against azole-susceptible Candida albicans MYA2876 incubated for 24 to 36 hrs by two fold dilution method; format: functional
# Candida albicans [8] = test: Induction of membrane permeabilization in azole-resistant Candida albicans 64124 at 1/4 times MIC incubated for 5 mins by phase contrast microscopic method; format: functional, organism-based
# HeLa = test: Cytotoxicity against human HeLa cells assessed as reduction in cell viability incubated for 24 hrs by MTT assay; format: cell-based
# Staphylococcus aureus [9] = test: Antibacterial activity against methicillin-resistant Staphylococcus aureus ATCC 43300 incubated for 18 hrs by two fold dilution method; format: functional; conditions: ATCC 43300, 18 h
# Candida albicans [10] = test: Induction of membrane permeabilization in azole-susceptible Candida albicans MYA2876 at 1/4 times MIC incubated for 5 mins by phase contrast microscopic method; format: functional, organism-based
# Cryptococcus neoformans [11] = test: Antifungal activity against Cryptococcus neoformans VR-54 incubated for 24 to 36 hrs by two fold dilution method; format: functional
# Staphylococcus aureus [12] = test: Antibacterial activity against methicillin-resistant Staphylococcus aureus ATCC 33591 incubated for 18 hrs by two fold dilution method; format: functional; conditions: ATCC 33591, 18 h
# Escherichia coli [13] = test: Induction of membrane permeabilization in Escherichia coli ATCC 25922 at MIC incubated for 5 mins by phase contrast microscopic method; format: functional, organism-based
# Staphylococcus aureus [14] = test: Induction of membrane permeabilization in Staphylococcus aureus at 1/2 times MIC incubated for 5 mins by phase contrast microscopic method; format: functional, organism-based
smiles,measurement,setting,value
Cl.Cl.Cl.Cl.NC[C@H]1O[C@H](O[C@H]2[C@H](O)[C@@H](O[C@H]3O[C@H](CNC(=O)c4ccccc4-c4c5ccc(=O)cc-5oc5cc(O)ccc45)[C@@H](O)[C@H](N)[C@H]3O)[C@H](N)C[C@@H]2N)[C@H](O)[C@@H](O)[C@@H]1O,MIC,Escherichia coli [1],32 µg/mL
same,MIC,Fusarium graminearum,32 µg/mL
same,Activity,Staphylococcus aureus [2],Active
same,MIC,Staphylococcus aureus [3],64 µg/mL
same,MIC,Candida albicans [4],128 µg/mL
same,MIC,Cryptococcus neoformans [5],64 µg/mL
same,Activity,Escherichia coli [6],Active
same,MIC,Rhodotorula mucilaginosa,32 µg/mL
same,MIC,Candida albicans [7],256 µg/mL
same,Activity,Candida albicans [8],Active
same,IC50,HeLa,> 100 µg/mL
same,MIC,Staphylococcus aureus [9],> 256 µg/mL
same,Activity,Candida albicans [10],Active
same,MIC,Cryptococcus neoformans [11],64 µg/mL
same,MIC,Staphylococcus aureus [12],> 256 µg/mL
same,Activity,Escherichia coli [13],inactive
same,Activity,Staphylococcus aureus [14],inactive
